Assay results reported in US20070249725A1, “Pharmaceutical formulations of sympathetic antagonist for the treatment of chronic muscle pain” (priority 2006, published 2007).
Where a name gives a salt, the structure may show the parent alone.

Test: Adverse events in subjects treated by trigger point injection (Example 1)
Type: in vivo, human
Protocol: A total of 326 male and female subjects, approximately 15 to 85 years old with pain of 4-72 month duration were treated with various doses of phenoxybenzamine. If a potential subject had pain that was clearly muscular and clearly not due to arthritis, nerve root compression or other extramuscular cause, the subject was considered a candidate for phenoxybenzamine hydrochloride injection. Trigger points were identified by palpation. A monopolar EMG needle was then inserted into the trigger point. Another monopolar EMG needle was inserted into a nearby nontender fibers of the same muscle. […] The treatment was repeated in up to 10-12 trigger points per treatment session. Subjects could return for up to 6 treatment sessions, depending on the extent of their pain. The initial treatment was with a dose of 25 mg of phenoxybenzamine hydrochloride in an injection volume of 2 ml. […] For 318 subjects, data were available for analysis for the doses of phenoxybenzamine hydrochloride used, efficacy and incidence of serious adverse events.
The frequencies of other adverse events occurring in the first 199 subjects treated, including the first 87 subjects treated with the 3 mg dose, are given in the table below. Results with an additional 131 subjects treated with the 3 mg dose have been similar.

[1] = 10-25 mg, single injection, N 23

SMILES: CC(COc1ccccc1)N(CCCl)Cc1ccccc1 (stereo not shown) [Phenoxybenzamine Hydrochloride, phenoxybenzamine hydrochloride]
- Burning, number of subjects [1]: 1
- Cold sensation, % of subjects [1]: (4%)
- Cold sensation, number of subjects [1]: 1
- Diaphoresis, % of subjects [1]: (0%)
- Diarrhea, % of subjects [1]: (0%)
- Dizziness, % of subjects [1]: (0%)
- Dry mouth, % of subjects [1]: (0%)
- Dysphagia, % of subjects [1]: (4%)
- Dysphagia, number of subjects [1]: 1
- Dyspnea, % of subjects [1]: (0%)
- Epistaxis, % of subjects [1]: (4%)
- Epistaxis, number of subjects [1]: 1
- Fatigue, % of subjects [1]: (4%)
- Fatigue, number of subjects [1]: 1
- Fever, % of subjects [1]: (0%)
- Flu syndrome, % of subjects [1]: (0%)
- Hair disorder, % of subjects [1]: (0%)
- Headache, % of subjects [1]: (0%)
- Hypesthesia, % of subjects [1]: (9%)
- Hypesthesia, number of subjects [1]: 2
- Injection site drainage, % of subjects [1]: (0%)
- Injection site soreness, % of subjects [1]: (35%)
- Injection site soreness, number of subjects [1]: 8
- Injection site swelling, % of subjects [1]: 26%
- Injection site swelling, number of subjects [1]: 6
- Lethargy, % of subjects [1]: (0%)
- Lightheadedness, % of subjects [1]: (4%)
- Lightheadedness, number of subjects [1]: 1
- Nasal disorder, % of subjects [1]: (9%)
- Nasal disorder, number of subjects [1]: 2
- Nausea, % of subjects [1]: (0%)
- Pain, % of subjects [1]: (26%)
- Pain, number of subjects [1]: 6
- Palpitations, % of subjects [1]: (0%)
- Paresthesia, % of subjects [1]: (0%)
- Pharyngitis, % of subjects [1]: (0%)
- Pruritis, % of subjects [1]: (0%)
- Rash, % of subjects [1]: 4%
- Rash, number of subjects [1]: 1
- Stiffness, % of subjects [1]: (13%)
- Stiffness, number of subjects [1]: 3
- Swelling, % of subjects [1]: (0%)
- Syncope, % of subjects [1]: (0%)
- Tachycardia, % of subjects [1]: (4%)
- Tachycardia, number of subjects [1]: 1
- Taste disorder, % of subjects [1]: (4%)
- Taste disorder, number of subjects [1]: 1
- Tremor, % of subjects [1]: (0%)
- Vomiting, % of subjects [1]: (0%)
- Bruising at injection site, % of subjects (Total of all doses, N 199): (6%)
- Bruising at injection site, number of subjects (Total of all doses, N 199): 11
- Burning, % of subjects (Total of all doses, N 199): (2%)
- Burning, number of subjects (Total of all doses, N 199): 4
- Cold sensation, % of subjects (Total of all doses, N 199): (1%)
- Cold sensation, number of subjects (Total of all doses, N 199): 2
- Diaphoresis, % of subjects (Total of all doses, N 199): (0%)
- Diaphoresis, number of subjects (Total of all doses, N 199): 1
- Diarrhea, % of subjects (Total of all doses, N 199): (1%)
- Diarrhea, number of subjects (Total of all doses, N 199): 2
- Dizziness, % of subjects (Total of all doses, N 199): (11%)
- Dizziness, number of subjects (Total of all doses, N 199): 21
- Dry mouth, % of subjects (Total of all doses, N 199): (0%)
- Dry mouth, number of subjects (Total of all doses, N 199): 1
- Dysphagia, % of subjects (Total of all doses, N 199): (0%)
- Dysphagia, number of subjects (Total of all doses, N 199): 1
- Dyspnea, % of subjects (Total of all doses, N 199): (2%)
- Dyspnea, number of subjects (Total of all doses, N 199): 4
- Epistaxis, % of subjects (Total of all doses, N 199): (0%)
- Epistaxis, number of subjects (Total of all doses, N 199): 1
- Fatigue, % of subjects (Total of all doses, N 199): (4%)
- Fatigue, number of subjects (Total of all doses, N 199): 8
- Fever, % of subjects (Total of all doses, N 199): (0%)
- Fever, number of subjects (Total of all doses, N 199): 1
- Flu syndrome, % of subjects (Total of all doses, N 199): (1%)
- Flu syndrome, number of subjects (Total of all doses, N 199): 2
- Hair disorder, % of subjects (Total of all doses, N 199): (0%)
- Hair disorder, number of subjects (Total of all doses, N 199): 1
- Headache, % of subjects (Total of all doses, N 199): (6%)
- Headache, number of subjects (Total of all doses, N 199): 12
- Hypesthesia, % of subjects (Total of all doses, N 199): (3%)
- Hypesthesia, number of subjects (Total of all doses, N 199): 6
- Injection site drainage, % of subjects (Total of all doses, N 199): (1%)
- Injection site drainage, number of subjects (Total of all doses, N 199): 2
- Injection site soreness, % of subjects (Total of all doses, N 199): (30%)
- Injection site soreness, number of subjects (Total of all doses, N 199): 59
- Injection site swelling, % of subjects (Total of all doses, N 199): 33%
- Injection site swelling, number of subjects (Total of all doses, N 199): 66
- Lethargy, % of subjects (Total of all doses, N 199): (0%)
- Lethargy, number of subjects (Total of all doses, N 199): 1
- Lightheadedness, % of subjects (Total of all doses, N 199): (7%)
- Lightheadedness, number of subjects (Total of all doses, N 199): 13
- Nasal disorder, % of subjects (Total of all doses, N 199): (2%)
- Nasal disorder, number of subjects (Total of all doses, N 199): 4
- Nausea, % of subjects (Total of all doses, N 199): (9%)
- Nausea, number of subjects (Total of all doses, N 199): 18
- Pain, % of subjects (Total of all doses, N 199): (5%)
- Pain, number of subjects (Total of all doses, N 199): 10
- Palpitations, % of subjects (Total of all doses, N 199): (0%)
- Palpitations, number of subjects (Total of all doses, N 199): 1
- Paresthesia, % of subjects (Total of all doses, N 199): (2%)
- Paresthesia, number of subjects (Total of all doses, N 199): 3
- Pharyngitis, % of subjects (Total of all doses, N 199): (0%)
- Pharyngitis, number of subjects (Total of all doses, N 199): 1
- Pruritis, % of subjects (Total of all doses, N 199): (0%)
- Pruritis, number of subjects (Total of all doses, N 199): 1
- Rash, % of subjects (Total of all doses, N 199): 2%
- Rash, number of subjects (Total of all doses, N 199): 3
- Stiffness, % of subjects (Total of all doses, N 199): (3%)
- Stiffness, number of subjects (Total of all doses, N 199): 6
- Swelling, % of subjects (Total of all doses, N 199): (1%)
- Swelling, number of subjects (Total of all doses, N 199): 2
- Syncope, % of subjects (Total of all doses, N 199): (3%)
- Syncope, number of subjects (Total of all doses, N 199): 6
- Tachycardia, % of subjects (Total of all doses, N 199): (0%)
- Tachycardia, number of subjects (Total of all doses, N 199): 1
- Taste disorder, % of subjects (Total of all doses, N 199): (2%)
- Taste disorder, number of subjects (Total of all doses, N 199): 4
- Tremor, % of subjects (Total of all doses, N 199): (1%)
- Tremor, number of subjects (Total of all doses, N 199): 2
- Vomiting, % of subjects (Total of all doses, N 199): (4%)
- Vomiting, number of subjects (Total of all doses, N 199): 7
